Measurements as given in patent publication US20100158808A1, “Altered Activity of Toll-Like Receptors” (priority 2003, published 2010).

Tests used:
Assay type in all cases: in vivo
TLR4 = assay: Serum TNF-α after i.p. injection in mice, ELISA
Method: Cytokine Quantification. Age-matched female mice were injected in the peritoneum with 0.5 U of elastase, 5 mg of HS, 200 U of heparin, 150 μg of CpG DNA, or PBS with a total volume of 250 μl. One hour and 3 hours after injection, 100-μl blood samples were collected from the tail vein. Cell supernatants and serum samples were immediately frozen at −20° C. until analysis. Concentrations of TNF-α were analyzed by enzyme-linked sandwich ELISA (R&D Systems, Minneapolis, Minn.).

CD86 = CD86 expression in spleen after injection into the spleens of mice; conditions: for Expression of CD86 in the spleen: injection into spleen of mice
Method: Surgical Procedures and Immunohistochemistry. Mice were anesthetized and the spleen was directly visualized through an incision in the lateral abdominal wall. Particular substances in […] of PBS were injected into the spleen. Spleens were harvested after 12 hours and sections were frozen in liquid nitrogen. Tissue sections were prepared and stained as described in (Dempsey et al. supra) with the following modifications. Secondary detection antibodies were diluted in M.O.M. diluent (Vector Laboratories, Burlingame, Calif.) and preabsorbed with mouse serum (Jackson ImmunoResearch Laboratories, West Grove, Pa.). Fluorescent images were converted to grayscale using SPOT software (Diagnostic Instruments, Sterling Heights, Mich.).
To determine whether elastase activity on ECM activates TLR4 responses in living tissues, elastase was injected into the spleens of mice. Such treatment typically causes rapid shedding of HS proteoglycans from the tissue, especially from blood vessels (Johnson et al. (2004) J. Immunol. (Cutting Edge) 172:20-24). The spleens were removed and examined for expression of CD86, a protein expressed in response to TLR4 signaling (Kaisho and Akira (2002) Biochim. Biophys. Acta 1589:1-13). […] In contrast, the expression of CD86 observed in leukocytes detached from ECM and stimulated with LPS or HS is considerably heightened (Johnson et al. supra). […] The changes in CD86 expression induced by elastase required TLR4, as the increase in CD86 was not observed when elastase was injected into spleens of mice lacking TLR4 function. Thus, the ECM may limit TLR4 signaling in vivo, and cleavage of ECM can trigger TLR4 signaling in living tissues.

mice = assay: Experimental shock model (SIRS), D-galactosamine, i.p. injection; conditions: for Death / SIRS in shock model: TLR4-mutant mice; for Death / SIRS in shock model / Death in shock model: i.p. with D-galactosamine; for Death in shock model: TLR4 wild-type mice
Method: Experimental shock model. Age- and sex-matched mice were injected with 5 mg of HS, 5 μg of LPS, 5 μg of Limulus anti-LPS factor, 5 mg of chondroitin sulfate, 200 U (−5 mg) heparin, 150 μg of CpG DNA, 1.5 U of elastase, or PBS mixed with 20 mg of D-galactosamine in a total volume of 500 μl of PBS by i.p. injection as previously described (Franks et al. (1991) Infect. Immun. 59:2609). Concentrations of HS and elastase were calculated by weight of lyophilized powder, and the doses used were near the LD50 based on dose-response experiments. In some experiments, the agonist was mixed with 5 or 20 μg of Limulus anti-LPS factor before injection. For some injections, enzymes were boiled at 100° C. for 60 minutes and vortexed vigorously, or preincubated with elastase inhibitor-1 for 4 hours at room temperature and then mixed with D-galactosamine before injection. Mice were monitored every hour for 48 hours and then euthanized.
During sepsis, Gram-negative bacteria shed LPS, which activates TLR4 on cells that then release inflammatory cytokines mediating systemic inflammation and death (Beutler (2000) Curr. Opin. Immunol. 12:20). To determine whether soluble HS can induce a model of systemic inflammatory response syndrome (SIRS) via activation of TLR4 in mice, HS was administered by i.p. injection to TLR4 wild type and mutant mice. This mouse model system has been used to study shock and a sepsis-like syndrome in response to microbial toxins (Galanos et al. (1979) Proc. Natl. Acad. Sci. USA 76:5939). […] Moreover, the observed responses were not due to contamination of HS by LPS, since the HS used was not contaminated with LPS.

[1] = TLR4-mutant mice, up to 3 hours
[2] = wild-type mice, 1 hour after treatment

| Substance | Serum TNF-α (TLR4; [1]) | Serum TNF-α (TLR4; [2]) | Expression of CD86 in the spleen (CD86) | Death / SIRS in shock model (mice) | Death in shock model (mice) | Increase in CD86 in the spleen (CD86; mice lacking TLR4 function) | Percent death after injection of elastase in SIRS shock model, TLR4 Mutant (%) (mice; TLR4 mutant mice) | Percent death after injection of elastase in SIRS shock model, TLR4 Wild Type (%) (mice; TLR4 wild type mice) |
| --- | --- | --- | --- | --- | --- | --- | --- | --- |
| heparan sulfate [HS] | not detectable | high serum levels of TNF-α | modestly increased | no TLR4-mutant mice injected with HS died | eighty percent | – | – | – |
| elastase: pancreatic elastase (Calbiochem; type IV porcine pancreatic elastase, Sigma-Aldrich), protease that cleaves ECM proteins | not detectable | high serum levels of TNF-α | profoundly increased | no TLR4 mutant mice died | Fifty percent | not observed | 0% | 50% |
| lipopolysaccharide [LPS] | – | – | modestly increased | – | died | – | – | – |
